Test system: collagen 1
Test: WI-38 collagen 1 inhibition assay (anti-Collagen I immunofluorescence);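 further: minus sign means inactive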
Format: cell-based
Conditions: cellular EC50, WI-38 human lung fibroblasts, values are LogEC50 classes

Row | SMILES | COL1 Efficacy (LogEC50)
1 | Fc1cncnc1N1CCN(Cc2nc3ccccc3o2)CC1 [compound 313] | + (+: >−5)
2 | c1ccc(-c2ccc3[nH]c(CN4CCN(c5ccncc5)CC4)cc3c2)cc1 [compound 219, 5-phenyl-2-[[4-(4-pyridyl)piperazin-1-yl]methyl]-1H-indole] | −
3 | O=C(Nc1ccccc1)c1ccc2[nH]c(CN3CCN(c4ccncc4)CC3)cc2c1 [compound 250, N-phenyl-2-[[4-(4-pyridyl)piperazin-1-yl]methyl]-1H-indole-5-carboxamide] | + (+: >−5)
4 | Cc1ncnc(N2CCN(Cc3cc4cc(Cl)ccc4[nH]3)CC2)c1C [Compound 210, 5-chloro-2-((4-(5,6-dimethylpyrimidin-4-yl)piperazin-1-yl)methyl)-1H-indole] | +++ (+++: <−6)
5 | Cc1ncnc(N2CCN(Cc3nc4cccc(C(F)(F)F)c4o3)CC2)c1C [compound 307, 2-((4-(5,6-dimethylpyrimidin-4-yl)piperazin-1-yl)methyl)-7-(trifluoromethyl)benzo[d]oxazole] | ++ (++: −5 to −6)
6 | Cn1cc(N2CCN(Cc3cc4ccccc4[nH]3)CC2)nn1 [compound 288, 2-((4-(1-methyl-1H-1,2,3-triazol-4-yl)piperazin-1-yl)methyl)-1H-indole] | ++ (++: −5 to −6)
7 | O=C(c1cccnc1)N1CCN(Cc2cc3ccccc3[nH]2)CC1 [Compound 231, [4-(1H-indol-2-ylmethyl)piperazin-1-yl]-(3-pyridyl)methanone] | −
8 | c1cnc2[nH]c(CN3CCN(c4ccncc4)CC3)cc2c1 [compound 275, 2-[[4-(4-pyridyl)piperazin-1-yl]methyl]-1H-pyrrolo[2,3-b]pyridine] | −
